The values below come from ChEMBL document CHEMBL4033734, “Synthesis of 3- and 29-substituted celastrol derivatives and structure-activity relationship studies of their cytotoxic activities” (Bioorg Med Chem Lett, 2017).

One may read the IC50 as the concentration at which inhibition is half-maximal.

For data set [1], the system named is HeLa. The experiment in a line: Cytotoxic activity against human HeLa cells incubated for 48 hrs by MTT assay. Format: functional, cell-based.
For data set [2], the system named is HepG2. The experiment in a line: Cytotoxic activity against human HepG2 cells incubated for 48 hrs by MTT assay. In kind it is functional, cell-based. Conditions: HepG2, 48 h.
Data set [3] relates to A549. The experiment in a line: Cytotoxic activity against human A549 cells incubated for 48 hrs by MTT assay. In kind it is functional, cell-based. Conditions: A549, 48 h. For orientation: Tetrazolium dyes change colour on reduction, which living cells bring about.
Data set [4] concerns SGC-7901. The experiment in a line: Cytotoxic activity against human SGC7901 cells incubated for 48 hrs by MTT assay. Conditions: SGC-7901, 48 h. In kind it is functional, cell-based.
The test system of data set [5] is Bel-7402. The experiment in a line: Cytotoxic activity against human Bel7402 cells incubated for 48 hrs by MTT assay. The conditions noted are these: Bel-7402, 48 h. Format: functional, cell-based.
The subject of data set [6] is A549. The experiment in a line: Antitumor activity against human A549 cells xenografted in nude mouse assessed as relative tumor volume at 12 mg/kg, ig dosed every day relative to initial tumor volume. Format: functional.
The subject of data set [7] is Mus musculus. The experiment in a line: Toxicity in nude mouse xenografted with human A549 cells assessed as induction of mouse fatality at 12 mg/kg, ig dosed every day. Format: organism-based. Conditions: in vivo, po.
Data set [8] has as its system Mus musculus. The experiment in a line: Toxicity in ip dosed nude mouse assessed as induction of mouse fatality. In kind it is organism-based. The conditions noted are these: in vivo.
In data set [9] the test system is Mus musculus. Kind of data set: Toxicity in nude mouse xenografted with human A549 cells assessed as change in body weight at 12 mg/kg, ig dosed every day (reference value: 26.5 g). In kind it is organism-based. The conditions noted are these: in vivo, po. On the technique in general: In xenograft studies the graft and the host belong to different species.
The test system of data set [10] is A549. The experiment in a line: Antitumor activity against human A549 cells xenografted in nude mouse assessed as tumor growth inhibition at 12 mg/kg, ig dosed every day. Format: functional. The conditions noted are these: A549, po, read-out: TGI.

For `CC1=C(OC(=O)N2CCN(Cc3ccccc3)CC2)C(=O)C=C2C1=CC=C1[C@@]2(C)CC[C@@]2(C)[C@@H]3C[C@](C)(C(=O)OCc4ccccc4)CC[C@]3(C)CC[C@]12C`, the 50% inhibitory concentration (IC50) in [1] was 18000 nM; in data set [2], 9900 nM; in [3] it was 8850 nM; in [4], 11700 nM; in data set [5] it was 5170 nM.

Take `CC1=C(O)C(=O)C=C2C1=CC=C1[C@@]2(C)CC[C@@]2(C)[C@@H]3C[C@](C)(C(=O)OCOCc4ccccc4)CC[C@]3(C)CC[C@]12C`: the IC50 in data set [1] was 1120 nM; in [2], 370 nM; in [3] it was 3780 nM; in [4], 300 nM; in data set [5], 510 nM.

`CC(=O)N1CCN(C(=O)OC2=C(C)C3=CC=C4[C@@](C)(CC[C@@]5(C)[C@@H]6C[C@](C)(C(=O)OCc7ccccc7)CC[C@]6(C)CC[C@]45C)C3=CC2=O)CC1`: the IC50 was 1350 nM in data set [1]; 5790 nM in data set [2]; 7200 nM in [3]; 3640 nM in data set [4]; 4230 nM in [5].

For the compound `CC1=C(OC(=O)N2CCOCC2)C(=O)C=C2C1=CC=C1[C@@]2(C)CC[C@@]2(C)[C@@H]3C[C@](C)(C(=O)OCc4ccccc4)CC[C@]3(C)CC[C@]12C`, the half-maximal inhibitory concentration (IC50) in data set [1] came to 1550 nM; in data set [2] it was 1360 nM; in data set [3], 9350 nM; in data set [4], 1780 nM; in [5], 1560 nM.

For `CC1=C(OC(=O)N2CCCCC2C)C(=O)C=C2C1=CC=C1[C@@]2(C)CC[C@@]2(C)[C@@H]3C[C@](C)(C(=O)OCc4ccccc4)CC[C@]3(C)CC[C@]12C` (stereo not given in full), the IC50 amounted to 4270 nM in data set [1]; 8190 nM in data set [2]; 15000 nM in [3]; 4730 nM in data set [4]; 5050 nM in data set [5].

Consider `CC1=C(OC(=O)N2CCCCC2)C(=O)C=C2C1=CC=C1[C@@]2(C)CC[C@@]2(C)[C@@H]3C[C@](C)(C(=O)OCc4ccccc4)CC[C@]3(C)CC[C@]12C`, for which the IC50 in data set [1] amounted to 2820 nM; in data set [2], 7430 nM; in data set [3] it was 12100 nM; in data set [4], 3040 nM; in data set [5], 3220 nM.

In the case of `CC1=C(O)C(=O)C=C2C1=CC=C1[C@@]2(C)CC[C@@]2(C)[C@@H]3C[C@](C)(C(=O)OCc4ccc([N+](=O)[O-])cc4)CC[C@]3(C)CC[C@]12C`, the IC50 in data set [1] stood at 410 nM; in [2], 440 nM; in data set [3], 2010 nM; in [4] it was 510 nM; in data set [5], 240 nM.

Consider `CC1=C(O)C(=O)C=C2C1=CC=C1[C@@]2(C)CC[C@@]2(C)[C@@H]3C[C@](C)(C(=O)OCc4ccc(C)cc4)CC[C@]3(C)CC[C@]12C`, for which the IC50 in data set [1] was found to be 1050 nM; in [2], 430 nM; in [3] it was 3120 nM; in [4], 700 nM; in data set [5], 630 nM.

In the case of `CCOC(=O)[C@]1(C)CC[C@]2(C)CC[C@]3(C)C4=CC=C5C(=CC(=O)C(O)=C5C)[C@]4(C)CC[C@@]3(C)[C@@H]2C1`, the IC50 amounted to 830 nM in data set [1]; 490 nM in data set [2]; 1440 nM in [3]; 240 nM in data set [4]; 920 nM in data set [5].

As to `CC1=C(O)C(=O)C=C2C1=CC=C1[C@@]2(C)CC[C@@]2(C)[C@@H]3C[C@](C)(C(=O)OCc4ccccc4)CC[C@]3(C)CC[C@]12C`, the half-maximal inhibitory concentration (IC50) in data set [1] is 460 nM; in data set [2] it was 800 nM; in data set [3], 2330 nM; in data set [4], 310 nM; in data set [5], 200 nM.

For the compound `COC(=O)[C@]1(C)CC[C@]2(C)CC[C@]3(C)C4=CC=C5C(=CC(=O)C(O)=C5C)[C@]4(C)CC[C@@]3(C)[C@@H]2C1` [PRISTIMERIN], the 50% inhibitory concentration (IC50) came to 320 nM in [1]; 780 nM in data set [2]; 1030 nM in data set [3]; 630 nM in [4]; 1160 nM in data set [5].

For `CCCCCOC(=O)[C@]1(C)CC[C@]2(C)CC[C@]3(C)C4=CC=C5C(=CC(=O)C(O)=C5C)[C@]4(C)CC[C@@]3(C)[C@@H]2C1`, the half-inhibitory concentration (IC50) in [1] is 560 nM; in [2], 440 nM; in data set [3], 2300 nM; in data set [4] it was 460 nM; in [5], 810 nM.

Regarding `CCCOC(=O)[C@]1(C)CC[C@]2(C)CC[C@]3(C)C4=CC=C5C(=CC(=O)C(O)=C5C)[C@]4(C)CC[C@@]3(C)[C@@H]2C1`, the 50% inhibitory concentration (IC50) in data set [1] amounted to 1380 nM; in data set [2], 280 nM; in data set [3] it was 2150 nM; in [4] it was 470 nM; in data set [5] it was 410 nM.

As for `CC1=C(O)C(=O)C=C2C1=CC=C1[C@@]2(C)CC[C@@]2(C)[C@@H]3C[C@](C)(C(=O)O)CC[C@]3(C)CC[C@]12C` [CELASTROL], the “fold change (FC)” value in [6] was 0.84. Moreover, the IC50 in data set [1] was found to be 840 nM; in data set [2], 580 nM; in data set [3] it was 2120 nM; in data set [4], 870 nM; in data set [5], 440 nM. Moreover, the values for the Activity entry in [7], in data set [8] and in [9] were “Toxic”, “Toxic” and 25.5 g, respectively. The inhibition in vivo at 12 mg/kg in data set [10] is 62%.

As for `CC1=C(O)C(=O)C=C2C1=CC=C1[C@@]2(C)CC[C@@]2(C)[C@@H]3C[C@](C)(C(=O)OCc4ccc(I)cc4)CC[C@]3(C)CC[C@]12C`, the half-maximal inhibitory concentration (IC50) in data set [1] was determined as 1320 nM; in [2], 1950 nM; in data set [3] it was 7700 nM; in [4], 810 nM; in data set [5], 860 nM.

For the compound `CC1=C(O)C(=O)C=C2C1=CC=C1[C@@]2(C)CC[C@@]2(C)[C@@H]3C[C@](C)(C(=O)OCc4ccc(Br)cc4)CC[C@]3(C)CC[C@]12C`, the IC50 in data set [1] is 870 nM; in data set [2], 660 nM; in data set [3], 3070 nM; in data set [4], 810 nM; in [5], 520 nM.

Regarding `CCN1CCN(C(=O)OC2=C(C)C3=CC=C4[C@@](C)(CC[C@@]5(C)[C@@H]6C[C@](C)(C(=O)OCc7ccccc7)CC[C@]6(C)CC[C@]45C)C3=CC2=O)CC1`, the IC50 stood at 1590 nM in data set [1]; 4610 nM in [2]; 5910 nM in data set [3]; 2880 nM in data set [4]; 2440 nM in data set [5].

For `CCOC(=O)COC(=O)[C@]1(C)CC[C@]2(C)CC[C@]3(C)C4=CC=C5C(=CC(=O)C(O)=C5C)[C@]4(C)CC[C@@]3(C)[C@@H]2C1`, the half-maximal inhibitory concentration (IC50) was 610 nM in [1]; 760 nM in [2]; 3890 nM in data set [3]; 670 nM in data set [4]; 300 nM in [5].

Regarding `C=CCOC(=O)[C@]1(C)CC[C@]2(C)CC[C@]3(C)C4=CC=C5C(=CC(=O)C(O)=C5C)[C@]4(C)CC[C@@]3(C)[C@@H]2C1`, the IC50 in data set [1] amounted to 310 nM; in [2], 310 nM; in [3], 1490 nM; in data set [4], 330 nM; in data set [5] it was 630 nM.

In the case of `CC1=C(O)C(=O)C=C2C1=CC=C1[C@@]2(C)CC[C@@]2(C)[C@@H]3C[C@](C)(C(=O)OCc4cccc(Cl)c4)CC[C@]3(C)CC[C@]12C`, the half-inhibitory concentration (IC50) in [1] turned out to be 420 nM; in [2], 870 nM; in [3], 3250 nM; in data set [4], 310 nM; in data set [5], 370 nM.

Regarding `CC1=C(OC(=O)N(C)c2ccccc2)C(=O)C=C2C1=CC=C1[C@@]2(C)CC[C@@]2(C)[C@@H]3C[C@](C)(C(=O)OCc4ccccc4)CC[C@]3(C)CC[C@]12C`, the IC50 in [1] turned out to be 6360 nM; in data set [2], 4250 nM; in data set [3] it was 14800 nM; in data set [4] it was 4310 nM; in data set [5] it was 4070 nM.

As to `CCCCOC(=O)[C@]1(C)CC[C@]2(C)CC[C@]3(C)C4=CC=C5C(=CC(=O)C(O)=C5C)[C@]4(C)CC[C@@]3(C)[C@@H]2C1`, the IC50 stood at 790 nM in data set [1]; 1050 nM in data set [2]; 1360 nM in [3]; 730 nM in data set [4]; 1010 nM in [5].

For `CC1=C(O)C(=O)C=C2C1=CC=C1[C@@]2(C)CC[C@@]2(C)[C@@H]3C[C@](C)(C(=O)OCC(C)C)CC[C@]3(C)CC[C@]12C`, the IC50 in data set [1] turned out to be 410 nM; in data set [2], 340 nM; in data set [3], 1070 nM; in [4], 240 nM; in data set [5] it was 530 nM.

As to `CC1=C(O)C(=O)C=C2C1=CC=C1[C@@]2(C)CC[C@@]2(C)[C@@H]3C[C@](C)(C(=O)OC(C)C)CC[C@]3(C)CC[C@]12C`, the IC50 was found to be 1750 nM in data set [1]; 320 nM in [2]; 3410 nM in data set [3]; 470 nM in data set [4]; 430 nM in [5].

For `CCC(C)OC(=O)[C@]1(C)CC[C@]2(C)CC[C@]3(C)C4=CC=C5C(=CC(=O)C(O)=C5C)[C@]4(C)CC[C@@]3(C)[C@@H]2C1` (stereo not given in full), the half-inhibitory concentration (IC50) is 360 nM in data set [1]; 390 nM in [2]; 1930 nM in [3]; 360 nM in data set [4]; 590 nM in [5].

Turning to `CCCCCCOC(=O)[C@]1(C)CC[C@]2(C)CC[C@]3(C)C4=CC=C5C(=CC(=O)C(O)=C5C)[C@]4(C)CC[C@@]3(C)[C@@H]2C1`, the half-maximal inhibitory concentration (IC50) came out at 1840 nM in data set [1]; 1740 nM in data set [2]; 9310 nM in data set [3]; 1580 nM in data set [4]; 2210 nM in [5].
